Patent US20230096761A1, “NOVEL COMPOSITION BASED ON POLYCAFFEOYLQUINIC ACIDS, COSMETIC USE THEREOF AND COSMETIC COMPOSITIONS COMPRISING SAME” (Societe D'Exploitation De Produits Pour Les Industries …, priority 2018, published 2023)
Marks after values point to notes of the source that are not given here.

Tested on: normal human keratinocytes
Experiment: Keratinocyte differentiation: filaggrin immunolabeling normalized to nuclei
Format: cell-based
Conditions: positive reference 1 mMol/L, 72 hours
Description: To do this, normal human keratinocytes were cultured at 37° C. and 5% CO2. After a period of 4 days, they were treated with the products whose action it is desired to evaluate. After culturing for a further 72 hours at 37° C. and 5% CO2 with the test products, the cell lawns were rinsed, dried and then fixed with glacial methanol. Filaggrin, a keratinocyte differentiation marker, was detected and quantified by fluorescent immunolabeling with an anti-filaggrin primary antibody and a fluorescent secondary antibody to reveal the former. The nuclei were detected and quantified by marking with Hoechst, a fluorescent stain which binds to DNA and thus labels the nuclei. This last labeling was performed to normalize the results obtained previously on filaggrin. An increase in the filaggrin (area of labeling)/nuclei (area of labeling) ratio is evidence of an increase in the differentiation of the epidermal keratinocytes, and consequently of reinforcement of the barrier effect of the epidermis, which constitutes one of the factors of the reinforcement of the state of moisturization of the skin. An increase in keratinocyte differentiation makes it possible to reinforce the barrier effect of the human epidermis, and consequently to decrease the unesthetic effects that may be caused by the dehydration of human skin.

## [Ca+2].[Cl-].[Cl-] [CaCl2]
  Filaggrin (area of labeling)/nuclei (area of labeling): 0.0245 ± 0.0045
filaggrin/nuclei
  % stimulation vs control: 621* %
